Assay results reported in the supplement of paper PMC11061612.

Tests used:
Assay in all cases: Bliss excess, mean over the matrix (fraction); higher = more synergy
[1] = system: MOLT-16 (T-Lymphoblastic Leukemia)
In short: (§1)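 After 24 hours at 37°C and 5% CO2 in 1536-well plates, cells in DMEM/F12 or RPMI plus 10% FBS received two-drug dose matrices for 72 hours. Viability came from CellTiter-Glo 2.0 luminescence and was scaled as inhibition, anchored at 0 by vehicle wells and at 1 by blank wells. Combination Emax is taken as the second-highest inhibition in the matrix, and Bliss excess as the observed combination effect less EA + EB − EA·EB, with EA and EB the single-agent effects.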

[2] = system: HL-60 (Acute Myeloid Leukemia)
In short: as §1

[3] = system: HDQ-P1 (Breast Carcinoma)
In short: as §1

[4] = system: L-540 (Hodgkin's Lymphoma)
In short: as §1

[5] = system: GR-ST (B-Lymphoblastic Leukemia)
In short: as §1

WM-115 (Melanoma) = system: WM-115 (Melanoma)
In short: as §1

U251 (Low Grade Glioma) = system: U251 (Low Grade Glioma)
In short: as §1

ES1 (Ewing's Sarcoma) = system: ES1 (Ewing's Sarcoma)
In short: as §1

[6] = system: KARPAS-45 (T-Lymphoblastic Leukemia)
In short: as §1

[7] = system: SU-DHL-8 (B-Cell Non-Hodgkin's Lymphoma)
In short: as §1

[8] = system: P12-ICHIKAWA (T-Lymphoblastic Leukemia)
In short: as §1

[9] = system: KCL-22 (Chronic Myelogenous Leukemia)
In short: as §1

[10] = system: EVSA-T (Breast Carcinoma)
In short: as §1

ES8 (Ewing's Sarcoma) = system: ES8 (Ewing's Sarcoma)
In short: as §1

NCI-H2818 (Mesothelioma) = system: NCI-H2818 (Mesothelioma)
In short: as §1

[11] = system: SW837 (Colorectal Carcinoma)
In short: as §1

[12] = system: SR (Other Blood Carcinomas)
In short: as §1

[13] = system: K-562 (Chronic Myelogenous Leukemia)
In short: as §1

[14] = system: BFTC-905 (Bladder Carcinoma)
In short: as §1

[15] = system: MS751 (Cervical Carcinoma)
In short: as §1

Compound | Bliss excess [1] | Bliss excess [2] | Bliss excess [3] | Bliss excess [4] | Bliss excess [5] | Bliss excess (WM-115 (Melanoma)) | Bliss excess (U251 (Low Grade Glioma)) | Bliss excess (ES1 (Ewing's Sarcoma)) | Bliss excess [6] | Bliss excess [7] | Bliss excess [8] | Bliss excess [9] | Bliss excess [10] | Bliss excess (ES8 (Ewing's Sarcoma)) | Bliss excess (NCI-H2818 (Mesothelioma)) | Bliss excess [11] | Bliss excess [12] | Bliss excess [13] | Bliss excess [14] | Bliss excess [15]
Cc1c2c(nn1C)CSCc1cc(n(C)n1)CSc1cc(c3ccccc3c1)OCCCc1c(C(=O)O)n(C)c3c-2c(Cl)ccc13 [AZD5991] + CC1(C)CCC(CN2CCN(c3ccc(C(=O)NS(=O)(=O)c4ccc(NCC5CCOCC5)c([N+](=O)[O-])c4)c(Oc4cnc5[nH]ccc5c4)c3)CC2)=C(c2ccc(Cl)cc2)C1 [Venetoclax] (first compound max 1 µM, 7x7, partner max 1 µM) | 0.063 | 0.0723 | -0.0129 | 0.0902 | -0.0484 | -0.0496 | -0.0068 | 0.0817 | 0.141 | 0.0491 | 0.0268 | 0.0111 | 0.0125 | 0.0936 | -0.0489 | -0.0169 | 0.0732 | -0.003 | -0.0016 | 0.0031
NC1(C(=O)N[C@@H](CCO)c2ccc(Cl)cc2)CCN(c2ncnc3[nH]ccc23)CC1 [Capivasertib] + CCN(CCO)CCCOc1ccc2c(Nc3cc(CC(=O)Nc4cccc(F)c4)[nH]n3)ncnc2c1 [AZD2811] (first compound max 10 µM, 7x7, partner max 1 µM) | -0.0183 | -0.0819 | -0.0077 | 0.0547 | 0.0222 | -0.0223 | 0.0469 | -0.0207 | -0.0426 | 0.0078 | -0.014 | 0.0544 | 0.0219 | -0.0394 | -0.0676 | -0.0646 | -0.0053 | -0.0151 | -0.0462 | 0.0515
Cc1c2c(nn1C)CSCc1cc(n(C)n1)CSc1cc(c3ccccc3c1)OCCCc1c(C(=O)O)n(C)c3c-2c(Cl)ccc13 [AZD5991] + Cn1cnc2c(F)c(Nc3ccc(Br)cc3Cl)c(C(=O)NOCCO)cc21 [Selumetinib] (first compound max 1 µM, 7x7, partner max 3 µM) | -0.0205 | 0.0587 | 0.0002 | 0.0007 | -0.0495 | -0.0114 | -0.0024 | 0.0123 | 0.011 | -0.074 | 0.0419 | 0.078 | 0.0136 | -0.0171 | -0.0458 | 0.0024 | -0.0007 | 0.0393 | 0.0136 | 0.067
Cc1c2c(nn1C)CSCc1cc(n(C)n1)CSc1cc(c3ccccc3c1)OCCCc1c(C(=O)O)n(C)c3c-2c(Cl)ccc13 [AZD5991] + C[C@@H](Nc1cc(F)cc(F)c1)c1cc(C(=O)N(C)C)cc2c(=O)cc(N3CCOCC3)oc12 [AZD8186] (first compound max 1 µM, 7x7, partner max 3 µM) | -0.0154 | – | -0.0209 | -0.0224 | -0.0352 | 0.018 | -0.0334 | 0.013 | 0.0206 | -0.0961 | -0.0058 | -0.0268 | 0.0412 | 0.042 | -0.0343 | -0.0156 | -0.0278 | 0.0096 | -0.012 | 0.0705
COc1nnc2ccc(N3CCC(c4ccc(OCCN5CCN(C)C(=O)[C@H]5C)cc4)CC3)nn12 [AZD5153] + CN(CC[C@H](CSC1=CC=CC=C1)NC2=C(C=C(C=C2)S(=O)(=O)NC(=O)C3=CC=C(C=C3)N4CCC(CC4)[C@H](C5=CC=CC=C5C6=CC=C(C=C6)Cl)O)S(=O)(=O)C(F)(F)F)CCO [AZD4320] (first compound max 1 µM, 7x7, partner max 1 µM) | 0.0258 | -0.0203 | 0.0844 | – | – | – | 0.0547 | – | 0.0274 | -0.128 | 0.0283 | 0.078 | 0.0426 | – | – | – | – | – | – | 0.0372
CC(=O)c1c(C)c2cnc(Nc3ccc(N4CCNCC4)cn3)nc2n(C2CCCC2)c1=O [Palbociclib] + CN(CC[C@H](CSC1=CC=CC=C1)NC2=C(C=C(C=C2)S(=O)(=O)NC(=O)C3=CC=C(C=C3)N4CCC(CC4)[C@H](C5=CC=CC=C5C6=CC=C(C=C6)Cl)O)S(=O)(=O)C(F)(F)F)CCO [AZD4320] (first compound max 10 µM, 7x7, partner max 1 µM) | -0.0494 | -0.102 | -0.0735 | – | – | – | -0.0989 | – | -0.0035 | -0.106 | -0.0298 | -0.0299 | -0.0631 | – | – | – | – | – | – | -0.0552
C[C@@H](c1ccc2nccn2c1)n1nnc2ncc(-c3cnn(C)c3)nc21 [Savolitinib] + CN(CC[C@H](CSC1=CC=CC=C1)NC2=C(C=C(C=C2)S(=O)(=O)NC(=O)C3=CC=C(C=C3)N4CCC(CC4)[C@H](C5=CC=CC=C5C6=CC=C(C=C6)Cl)O)S(=O)(=O)C(F)(F)F)CCO [AZD4320] (first compound max 1 µM, 7x7, partner max 1 µM) | -0.0222 | -0.0536 | -0.0432 | – | – | – | -0.0546 | – | -0.0289 | 0.0282 | -0.0097 | -0.0201 | 0.0099 | – | – | – | – | – | – | 0.0315
CN(CCO)CC[C@H](CSc1ccccc1)Nc1ccc(S(=O)(=O)NC(=O)c2ccc(N3CCC([C@@H](O)c4ccccc4-c4ccc(Cl)cc4)CC3)cc2)cc1S(=O)(=O)C(F)(F)F [AZD4320] + C[C@@H](Nc1cc(F)cc(F)c1)c1cc(C(=O)N(C)C)cc2c(=O)cc(N3CCOCC3)oc12 [AZD8186] (first compound max 1 µM, 7x7, partner max 3 µM) | -0.0157 | – | -0.0018 | 0.068 | -0.054 | 0.0755 | -0.0013 | 0.0591 | 0.0842 | -0.0714 | 0.0502 | 0.0307 | 0.0222 | 0.0142 | -0.0232 | -0.0491 | 0.0428 | 0.0309 | -0.0221 | 0.0982
CCc1c2c(nc3ccc(O)cc13)-c1cc3c(c(=O)n1C2)COC(=O)[C@]3(O)CC [SN-38] + CN(C)CCCOc1ccc(-c2ccc3ncc4c(c3c2)n(C2CCOCC2)c(=O)n4C)cn1 [AZD0156] (first compound max 0.3 µM, 7x7, partner max 1 µM) | 0.0538 | 0.115 | 0.0065 | 0.0206 | -0.0319 | -0.0408 | -0.0239 | 0.0784 | -0.0082 | -0.059 | – | 0.0872 | -0.0354 | 0.0458 | 0.015 | -0.0613 | 0.0878 | 0.0331 | 0.0608 | 0.0355
CCN(CCO)CCCOc1ccc2c(Nc3cc(CC(=O)Nc4cccc(F)c4)[nH]n3)ncnc2c1 [AZD2811] + C=CCn1c(=O)c2cnc(Nc3ccc(N4CCN(C)CC4)cc3)nc2n1-c1cccc(C(C)(C)O)n1 [AZD1775] (first compound max 1 µM, partner max 1 µM) | -0.0255 | -0.0445 | -0.0186 | 0.0772 | -0.0338 | -0.0562 | -0.0117 | 0.16 | -0.0766 | 0.0945 | – | 0.0162 | -0.0073 | -0.0218 | -0.0461 | 0.0033 | -0.0146 | 0.0526 | 0.0468 | 0.0461
CCN(CCO)CCCOc1ccc2c(Nc3cc(CC(=O)Nc4cccc(F)c4)[nH]n3)ncnc2c1 [AZD2811] + O=C(c1cc(Cc2n[nH]c(=O)c3ccccc23)ccc1F)N1CCN(C(=O)C2CC2)CC1 [Olaparib] (first compound max 1 µM, 7x7, partner max 10 µM) | 0.0395 | -0.082 | 0.0076 | 0.0113 | -0.0358 | -0.0343 | 0.0281 | 0.0749 | -0.115 | 0.102 | – | 0.0534 | 0.0242 | -0.0296 | -0.0415 | 0.0027 | -0.0064 | 0.0216 | -0.0029 | -0.0068
COc1cccc(OCCCN)c1-c1cc(Nc2cnc(C#N)cn2)n[nH]1 [Prexasertib] + C=CCn1c(=O)c2cnc(Nc3ccc(N4CCN(C)CC4)cc3)nc2n1-c1cccc(C(C)(C)O)n1 [AZD1775] (first compound max 1 µM, partner max 1 µM) | 0.0716 | 0.0981 | 0.0861 | -0.0185 | -0.0448 | 0.0354 | 0.0943 | 0.0948 | 0.0553 | -0.0202 | – | 0.088 | 0.0197 | 0.0633 | -0.0212 | 0.073 | -0.014 | 0.0497 | 0.147 | 0.0653
COc1cccc(OCCCN)c1-c1cc(Nc2cnc(C#N)cn2)n[nH]1 [Prexasertib] + C[C@@H]1COCCN1C2=NC(=NC(=C2)C3(CC3)[S@](=N)(=O)C)C4=C5C=CNC5=NC=C4 [AZD6738] (first compound max 1 µM, 7x7, partner max 10 µM) | 0.0291 | -0.0289 | 0.11 | -0.0341 | -0.0845 | 0.0242 | -0.0193 | -0.0142 | -0.0117 | -0.0214 | – | -0.0302 | 0.0094 | -0.0371 | -0.0168 | 0.0106 | -0.0164 | -0.0435 | 0.0096 | 0.0539
COc1cccc(OCCCN)c1-c1cc(Nc2cnc(C#N)cn2)n[nH]1 [Prexasertib] + CN(C)CCCOc1ccc(-c2ccc3ncc4c(c3c2)n(C2CCOCC2)c(=O)n4C)cn1 [AZD0156] (first compound max 1 µM, 7x7, partner max 1 µM) | 0.05 | -0.0026 | 0.023 | 0.0019 | -0.0287 | -0.0035 | -0.0092 | 0.0127 | -0.0485 | -0.0553 | – | -0.0021 | -0.0133 | -0.011 | -0.0871 | -0.0022 | -0.0266 | -0.0217 | 0.0125 | 0.02
C[C@@H]1COCCN1c1cc(C2([S@](C)(=N)=O)CC2)nc(-c2ccnc3[nH]ccc23)n1 [AZD6738] + O=C(c1cc(Cc2n[nH]c(=O)c3ccccc23)ccc1F)N1CCN(C(=O)C2CC2)CC1 [Olaparib] (first compound max 10 µM, 7x7, partner max 10 µM) | -0.0064 | -0.0275 | 0.0155 | -0.022 | -0.0471 | 0.0166 | 0.056 | -0.0157 | 0.0023 | 0.0343 | – | -0.0454 | 0.0017 | 0.0543 | 0.0285 | 0.0093 | 0.024 | -0.0646 | 0.0156 | 0.0114
